Results as given in US20250040543A1, “Preservative Composition” (ARXADA AG, priority 2021, published 2025).
Where two headings read alike, the source gives them in different places.

Columns and labels:
[1] = system: Candida albicans; experiment: MIC and Synergy Index (Kull) of two-component compositions; format: cell-based; conditions: for MIC: Candida albicans
Experimental: (§1) A wide range of concentrations were tested against Pseudomonas aeruginosa, Staphylococcus aureus, Escherichia coli, and Candda albicans.
(§2) The lowest concentration of each mixture or single compound which prevents an observable level of growth was determined to be the minimum inhibitory concentration (MIC) value.
(§3) Serial dilutions of each mixture or single compound were prepared. Micro-organisms were inoculated into media: Nutrient Broth (bacteria) or Malt Extract Broth (yeast). The final concentrations of micro-organisms in media was approximately 10^5-6 CFU/ml. The inoculated media was introduced to each of the serial dilutions at a 1:1 ratio, and incubated at 30±1° C. for 24-48 hours.
(§4) The MICs for each mixture was compared with the MIC of each single compound alone.
(§5) In this study the end point is measured by the MIC.

[2] = system: Escherichia coli; experiment: as above; format: cell-based; conditions: for MIC: Escherichia coli
Experimental: as §1, §2, §3, §4
(§6) Synergy was determined using the Kull equation (F. C. Kull et. al., “Mixtures of Quaternary Ammonium Compounds and Long-chain Fatty Acids as Antifungal Agents”, Appl Microbiol. 1961 November; 9(6): 538-541), which calculates a Synergy Index (SI) according the following equation:
(§7) [formula] • wherein • QA=concentration of compound A in ppm, acting alone produced an end point, • Qa=concentration of compound A in ppm, in the mixture, which produced an end point, • QB=concentration of compound B in ppm, acting alone produced an end point, and • Qb=concentration of compound B in ppm, in the mixture, which produced an end point;
as §5

[3] = system: Pseudomonas aeruginosa; experiment: as above; format: cell-based; conditions: for MIC: Pseudomonas aeruginosa
Experimental: as §1, §2, §3, §4, §6, §7, §5

[4] = system: Staphylococcus aureus; experiment: as above; format: cell-based; conditions: for MIC: Staphylococcus aureus
Experimental: as §1, §2, §3, §4, §6, §7, §5

[5] = system: Aspergillus brasiliensis ATCC 16404; experiment: Preservation efficacy test in sterile distilled water, drop plate; format: cell-based; conditions: 7 days, Butyl Levulinate 0 ppm
Experimental: (§8) In the following example, the following test organisms were used: • Pseudomonas aeruginosa ATCC 9027 • Aspergillus brasiliensis ATCC 16404 [table] Mould strain spores were harvested (sterile distilled water+0.05% polysorbate 80) and treated to remove fungal hyphae. Mould strain spores were prepared in diluent (sterile distilled water) to obtain a final concentration of 1.0×10^5 to 1.0×10^5 cfu/ml. [table] […] Each sample was inoculated at t=0 with a known concentration of micro-organism. Each inoculated sample was then mixed until a homogenous mixture was obtained. […] The solution was left for 15 minutes. Subsequent dilutions were prepared by serial dilution of 0.1 ml into 0.9 ml of neutralising broth. Bacteria were serially diluted to 10^−4, Fungi were serially diluted to 10^−3. Each serial dilution was thoroughly mixed and 25 μl drops were aliquoted onto the surface of pre-prepared agar plates. Plates were prepared in sextupicate for each sample dilution. The agar plates were allowed to dry, then inverted and incubated under conditions appropriate for the test microorganisms. CFU/ml was calculated taking into account dilution factors. […] The lower and upper limits for drop plating were only employed on the highest and lowest dilution factor plates.

[6] = system: Pseudomonas aeruginosa ATCC 9027; experiment: as above; format: cell-based; conditions: 7 days, Butyl Levulinate 0 ppm
Experimental: as §8, with “[table] Bacteria” for “[table] Mould strain spores”, “harvested” for “harvested (sterile distilled water+0.05% polysorbate 80)”, “and” for “and treated to remove fungal hyphae. Mould strain spores were”, “of 1.0×10^6” for “of 1.0×10^5”, “to 5.0×10^6” for “to 1.0×10^5”

[7] = system: C. albicans; experiment: as above; format: cell-based, Candida albicans; conditions: 7 days, pH 7, Butyl Levulinate 0 ppm
Experimental: Yeast strains were harvested and prepared in diluent (sterile distilled water) to obtain a final concentration of 1.0×10^5 to 1.0×10^6 cfu/ml.
Preservation efficacy testing started at Day 0 (t=0). Each sample was inoculated at t=0 with a known concentration of micro-organism. Each inoculated sample was then mixed until a homogenous mixture was obtained. Inoculated samples were stored in the dark at 22.5±2.5° C. throughout the test period.
At the specified contact time of 7 days (t=7), test samples were deactivated by adding a 0.1 ml aliquot of the test sample to 0.9 ml of an appropriate neutralising broth. The solution was left for 15 minutes. Subsequent dilutions were prepared by serial dilution of 0.1 ml into 0.9 ml of neutralising broth. Bacteria were serially diluted to 10^−4, Fungi were serially diluted to 10^−3.
Each serial dilution was thoroughly mixed and 25 μl drops were aliquoted onto the surface of pre-prepared agar plates. Plates were prepared in sextupicate for each sample dilution.
The agar plates were allowed to dry, then inverted and incubated under conditions appropriate for the test microorganisms.
CFU/ml was calculated taking into account dilution factors. Colonies from the incubated plates were enumerated using the lower count limit of <10 CFU/ml and the upper count limit of >330 CFU/ml.
The lower and upper limits for drop plating were only employed on the highest and lowest dilution factor plates.
The test organisms were prepared and the method was performed according to the protocol of Example 1.

[8] = ethyl levulinate alone, or its concentration in the mixture with Sodium benzoate, read-out: MIC (ppm) to inhibit growth: Ethyl levulinate
[9] = ethyl levulinate alone, or its concentration in the mixture with Sodium Pyrithione
[10] = read-out: MIC (ppm) to inhibit growth: DHA
[11] = Lactic Acid alone, or its concentration in the mixture with ethyl levulinate, read-out: MIC (ppm) to inhibit growth: Lactic Acid
[12] = Sodium Pyrithione alone, or its concentration in the mixture with ethyl levulinate
[13] = Sodium pyrithione alone, or its concentration in the mixture with butyl levulinate
[14] = pH 7, Potassium Sorbate 5000 ppm
[15] = pH 7, Potassium Sorbate 10000 ppm
[16] = pH 7, Potassium Sorbate 15000 ppm
[17] = pH 7, Potassium Sorbate 20000 ppm
[18] = pH 7, Potassium Sorbate 25000 ppm
[19] = read-out: MIC (ppm) to inhibit growth: Potassium Sorbate
[20] = pH 7, Sodium Benzoate 10000 ppm
[21] = pH 7, Sodium Benzoate 15000 ppm
[22] = pH 7, Sodium Benzoate 20000 ppm
[23] = pH 7, Sodium Benzoate 25000 ppm
[24] = pH 8, Sodium Benzoate 10000 ppm
[25] = pH 8, Sodium Benzoate 15000 ppm
[26] = pH 8, Sodium Benzoate 20000 ppm
[27] = pH 8, Sodium Benzoate 25000 ppm
[28] = Sodium benzoate alone, or its concentration in the mixture with butyl levulinate
[29] = Sodium benzoate alone, or its concentration in the mixture with ethyl levulinate
[30] = ADBAC alone, or its concentration in the mixture with ethyl levulinate

## CCOC(=O)CCC(C)=O [Ethyl levulinate, ethyl levulinate]
[1]; [8]
  MIC: 25000 µg/mL
[1]; ethyl levulinate alone, or its concentration in the mixture with ADBAC
  MIC (ppm) to inhibit growth: Ethyl levulinate: 25000 ppm
[1]; ethyl levulinate alone, or its concentration in the mixture with Lactic Acid
  MIC (ppm) to inhibit growth: Ethyl levulinate: 25000 ppm
[1]; ethyl levulinate alone, or its concentration in the mixture with Potassium Sorbate
  MIC (ppm) to inhibit growth: Ethyl levulinate: 25000 ppm
[1]; [9]
  MIC (ppm) to inhibit growth: Ethyl levulinate: 25000 ppm
[2]; [8]
  MIC: 25000 µg/mL
[3]; ethyl levulinate alone, or its concentration in the mixture with ADBAC, read-out: MIC (ppm) to inhibit growth: Ethyl levulinate
  MIC: 12500 µg/mL
[3]; [9]
  MIC (ppm) to inhibit growth: Ethyl levulinate: 12500 ppm
[4]; ethyl levulinate alone, or its concentration in the mixture with Lactic Acid, read-out: MIC (ppm) to inhibit growth: Ethyl levulinate
  MIC: 12500 µg/mL
[4]; ethyl levulinate alone, or its concentration in the mixture with Potassium Sorbate, read-out: MIC (ppm) to inhibit growth: Ethyl levulinate
  MIC: 12500 µg/mL
[4]; [8]
  MIC: 25000 µg/mL

## O=c1[nH]sc2ccccc12 [BIT, benzisothiazolinone, reference compound]
[1]; BIT alone, or its concentration in the mixture with butyl levulinate
  MIC (ppm) to inhibit growth: BIT: 31 ppm

## CC(=O)C1C(=O)C=C(C)OC1=O (stereo not drawn) [DHA, dehydroacetic acid, reference compound]
[1]; [10]
  MIC: 250 µg/mL
[2]; [10]
  MIC: 5000 µg/mL

## CC(O)C(=O)O (stereo not drawn) [Lactic Acid, lactic acid, reference compound]
[1]; [11]
  MIC: 10000 µg/mL
[3]; Lactic Acid alone, or its concentration in the mixture with butyl levulinate, read-out: MIC (ppm) to inhibit growth: Lactic Acid
  MIC: 625 µg/mL
[4]; [11]
  MIC: 156 µg/mL

## CCCCNC(=O)OCC#CI [IPBC, 3-Iodo-2-propynyl butylcarbamate, reference compound]
[5]; pH 7, IPBC 100 ppm
  Log reduction: 1.21
[5]; pH 7, IPBC 250 ppm
  Log reduction: 0.77
[5]; pH 7, IPBC 500 ppm
  Log reduction: 0.71
[5]; pH 7, IPBC 750 ppm
  Log reduction: 0.57
[5]; pH 7, IPBC 1000 ppm
  Log reduction: 0.85

## [Na+].[O-][n+]1ccccc1[S-] [Sodium Pyrithione, sodium pyrithione, reference compound]
[1]; [12]
  MIC (ppm) to inhibit growth: Sodium Pyrithione: 31 ppm
[1]; [13]
  MIC (ppm) to inhibit growth: Sodium Pyrithione: 16 ppm
[3]; [12]
  MIC (ppm) to inhibit growth: Sodium Pyrithione: 63 ppm
[3]; [13]
  MIC (ppm) to inhibit growth: Sodium Pyrithione: 63 ppm

## poly(hexamethylene) biguanide [PHMB, reference compound]
[1]; PHMB alone, or its concentration in the mixture with butyl levulinate
  MIC (ppm) to inhibit growth: PHMB: 313 ppm

## C/C=C/C=C/C(=O)[O-].[K+] [Potassium Sorbate, potassium sorbate, reference compound]
[6]; [14]
  Log reduction: <0.03
[6]; [15]
  Log reduction: <0.03
[6]; [16]
  Log reduction: <0.03
[6]; [17]
  Log reduction: >4.55
[6]; [18]
  Log reduction: >4.55
[6]; pH 8, Potassium Sorbate 5000 ppm
  Log reduction: <0.33
[6]; pH 8, Potassium Sorbate 10000 ppm
  Log reduction: <0.33
[6]; pH 8, Potassium Sorbate 15000 ppm
  Log reduction: <0.33
[6]; pH 8, Potassium Sorbate 20000 ppm
  Log reduction: <0.33
[6]; pH 8, Potassium Sorbate 25000 ppm
  Log reduction: <0.33
[1]; [19]
  MIC: 2500 µg/mL
[1]; Potassium Sorbate alone, or its concentration in the mixture with butyl levulinate
  MIC (ppm) to inhibit growth: Potassium Sorbate: 2500 ppm
[4]; [19]
  MIC: 156 µg/mL
[7]; Potassium Sorbate 5000 ppm
  Log reduction: 1.01
[7]; Potassium Sorbate 10000 ppm
  Log reduction: 0.72
[7]; Potassium Sorbate 15000 ppm
  Log reduction: 0.72
[7]; Potassium Sorbate 20000 ppm
  Log reduction: 0.92
[7]; Potassium Sorbate 25000 ppm
  Log reduction: 0.83
[5]; [14]
  Log reduction: 0.58
[5]; [15]
  Log reduction: 0.67
[5]; [16]
  Log reduction: 0.45
[5]; [17]
  Log reduction: 0.64
[5]; [18]
  Log reduction: 0.52

## O=C([O-])c1ccccc1.[Na+] [Sodium Benzoate, sodium benzoate, reference compound]
[6]; pH 7, Sodium Benzoate 5000 ppm
  Log reduction: 1.73
[6]; [20]
  Log reduction: >4.90
[6]; [21]
  Log reduction: >4.90
[6]; [22]
  Log reduction: >4.90
[6]; [23]
  Log reduction: >4.90
[6]; pH 8, Sodium Benzoate 5000 ppm
  Log reduction: 1.54
[6]; [24]
  Log reduction: 1.36
[6]; [25]
  Log reduction: 1.57
[6]; [26]
  Log reduction: 3.20
[6]; [27]
  Log reduction: >4.57
[1]; [28]
  MIC (ppm) to inhibit growth: Sodium benzoate: 7500 ppm
[1]; [29]
  MIC (ppm) to inhibit growth: Sodium benzoate: 7500 ppm
[2]; [28]
  MIC (ppm) to inhibit growth: Sodium benzoate: 7500 ppm
[2]; [29]
  MIC (ppm) to inhibit growth: Sodium benzoate: 7500 ppm
[4]; [28]
  MIC (ppm) to inhibit growth: Sodium benzoate: 15000 ppm
[4]; [29]
  MIC (ppm) to inhibit growth: Sodium benzoate: 15000 ppm
[5]; pH 7, Sodium Benzoate 5000 ppm
  Log reduction: 2.09
[5]; [20]
  Log reduction: 2.14
[5]; [21]
  Log reduction: 2.20
[5]; [22]
  Log reduction: 2.33
[5]; [23]
  Log reduction: 3.11
[5]; pH 8, Sodium Benzoate 5000 ppm
  Log reduction: 0.33
[5]; [24]
  Log reduction: 0.70
[5]; [25]
  Log reduction: 0.64
[5]; [26]
  Log reduction: 0.60
[5]; [27]
  Log reduction: 0.55

## alkyldimethylbenzylammonium chloride [ADBAC]
[1]; [30]
  MIC (ppm) to inhibit growth: ADBAC: 8 ppm
[3]; [30]
  MIC (ppm) to inhibit growth: ADBAC: 16 ppm
